Test results taken from PubChem BioAssay AID330 (DTP/NCI, 2004).
Where “and” joins values, the source holds several entries; their conditions need not be identical. Identical values can stand only once. Toxic doses and inconclusive results are not listed.

Tested on: P388 leukemia ip, CD2F1 mice, survival T/C
Assay: NCI In Vivo Anticancer Drug Screen. Data for tumor model P388 Leukemia (intraperitoneal) in CD2F1 (CDF1) mice
Conditions: endpoint: median survival time, higher = longer survival
Outline: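 Mice carrying the transplanted tumor received test compound or vehicle. Survival was recorded in each group, and the value is the treated-group measurement divided by that of the vehicle-treated control group.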

[1] = dose: 50.0 mg/kg/injection, schedule: Q01DX005 (ip), vehicle: saline with Tween-80
[2] = dose: 100.0 mg/kg/injection, schedule: Q01DX005 (ip), vehicle: saline with Tween-80
[3] = dose: 200.0 mg/kg/injection, schedule: Q01DX005 (ip), vehicle: saline with Tween-80
[4] = dose: 50.0 mg/kg/injection, schedule: Q01DX005 (ip), vehicle: Klucel (hydroxypropylcellulose) (HPC)
[5] = dose: 100.0 mg/kg/injection, schedule: Q01DX005 (ip), vehicle: Klucel (hydroxypropylcellulose) (HPC)
[6] = dose: 50.0 mg/kg/injection, schedule: Q01DX009 (ip), vehicle: saline with Tween-80
[7] = dose: 100.0 mg/kg/injection, schedule: Q01DX009 (ip), vehicle: saline with Tween-80
[8] = dose: 200.0 mg/kg/injection, schedule: Q01DX009 (ip), vehicle: saline with Tween-80
[9] = dose: 60.0 mg/kg/injection, schedule: Q01DX005 (ip), vehicle: saline with Tween-80
[10] = dose: 120.0 mg/kg/injection, schedule: Q01DX005 (ip), vehicle: saline with Tween-80
[11] = dose: 240.0 mg/kg/injection, schedule: Q01DX005 (ip), vehicle: saline with Tween-80
[12] = dose: 50.0 mg/kg/injection, schedule: Q01DX001 (ip), vehicle: Klucel (hydroxypropylcellulose) (HPC)
[13] = dose: 100.0 mg/kg/injection, schedule: Q01DX001 (ip), vehicle: Klucel (hydroxypropylcellulose) (HPC)
[14] = dose: 50.0 mg/kg/injection, schedule: Q01DX009 (ip), vehicle: saline

C=CCNC(=S)Nc1ccccn1
T/C [1]: 104 % of control
T/C [2]: 100 % of control
T/C [3]: 102 % of control

Cc1cc(S(=O)(=O)c2ccccc2C(=O)O)nc2c1ccc1ccccc12
T/C [4]: 105 % of control
T/C [5]: 103 % of control
T/C (dose: 200.0 mg/kg/injection, schedule: Q01DX005 (ip), vehicle: Klucel (hydroxypropylcellulose) (HPC)): 103 % of control

Cc1ccn2c(C(C)O)nnc2c1 (stereo not given)
T/C [6]: 93 % of control
T/C [7]: 90 % of control
T/C [8]: 100 % of control

O=C1Sc2ccccc2Cn2cccc21
T/C [9]: 108 % of control
T/C [10]: 108 % of control
T/C [11]: 123 % of control

CC(C)CC(NC(=O)C(CC(C)C)NC(=O)OCc1ccccc1)C(=O)O (stereo not given)
T/C [1]: 100 % of control
T/C [2]: 102 % of control
T/C [3]: 94 % of control

CCOc1cc(=O)cc2n(-c3cc(OCC)c(O)c(OCC)c3)c3ccccc3nc1-2
T/C (dose: 50.0 mg/kg/injection, schedule: Q01DX009 (ip), vehicle: suspension in saline): 100 % of control
T/C (dose: 100.0 mg/kg/injection, schedule: Q01DX009 (ip), vehicle: suspension in saline): 101 % of control
T/C (dose: 200.0 mg/kg/injection, schedule: Q01DX009 (ip), vehicle: suspension in saline): 97 % of control

Cc1ccc(Cl)cc1NC(=O)N(C)CCO
T/C (dose: 60.0 mg/kg/injection, schedule: Q01DX005 (ip), vehicle: Klucel (hydroxypropylcellulose) (HPC)): 103 % of control
T/C (dose: 120.0 mg/kg/injection, schedule: Q01DX005 (ip), vehicle: Klucel (hydroxypropylcellulose) (HPC)): 103 % of control
T/C (dose: 240.0 mg/kg/injection, schedule: Q01DX005 (ip), vehicle: Klucel (hydroxypropylcellulose) (HPC)): 94 % of control

CCC1(c2ccccc2)C(=O)N(C)C(=O)N(CCCl)C1=O (stereo not given)
T/C (dose: 50.0 mg/kg/injection, schedule: Q01DX009 (ip), vehicle: Klucel (hydroxypropylcellulose) (HPC)): 96 % of control
T/C (dose: 100.0 mg/kg/injection, schedule: Q01DX009 (ip), vehicle: Klucel (hydroxypropylcellulose) (HPC)): 98 % of control
T/C (dose: 200.0 mg/kg/injection, schedule: Q01DX009 (ip), vehicle: Klucel (hydroxypropylcellulose) (HPC)): 93 % of control

CCCN(C)C(=O)N(CCCl)N=O
T/C (dose: 16.0 mg/kg/injection, schedule: Q01DX001 (ip), vehicle: water): 166 % of control
T/C (dose: 32.0 mg/kg/injection, schedule: Q01DX001 (ip), vehicle: water): 240 % of control

C/C(=C\C(=O)c1ccccc1)Nc1ccc(Cl)cc1
T/C (dose: 25.0 mg/kg/injection, schedule: Q01DX009 (ip), vehicle: saline with Tween-80): 108 % of control
T/C [6]: 92 % of control
T/C [7]: 89 % of control
T/C [8]: 99 % of control

O=C(O)/C=N/NS(=O)(=O)c1ccccc1
T/C (dose: 12.5 mg/kg/injection, schedule: Q01DX009 (ip), vehicle: water): 113 % of control
T/C (dose: 50.0 mg/kg/injection, schedule: Q01DX009 (ip), vehicle: water): 153 % of control
T/C (dose: 75.0 mg/kg/injection, schedule: Q01DX009 (ip), vehicle: water): 163 % of control
T/C (dose: 100.0 mg/kg/injection, schedule: Q01DX009 (ip), vehicle: water): 99 % of control

COSc1ccc([N+](=O)[O-])cc1
T/C (dose: 100.0 mg/kg/injection, schedule: Q04DX003 (ip), vehicle: Klucel (hydroxypropylcellulose) (HPC)): 108 % of control
T/C (dose: 200.0 mg/kg/injection, schedule: Q04DX003 (ip), vehicle: Klucel (hydroxypropylcellulose) (HPC)): 102 % of control
T/C (dose: 400.0 mg/kg/injection, schedule: Q04DX003 (ip), vehicle: Klucel (hydroxypropylcellulose) (HPC)): 99 % of control

[O-]c1ccc[n+]2c1sc1ncccc12 (tested in a mixture with another compound)
T/C [1]: 107 % of control
T/C [2]: 107 % of control
T/C [3]: 105 % of control

Cc1cc(=O)n2c3c(c4c(cc13)c(CBr)cc(=O)n4C)OC2
T/C (dose: 12.5 mg/kg/injection, schedule: Q01DX001 (ip), vehicle: Klucel (hydroxypropylcellulose) (HPC)): 96 % of control
T/C (dose: 25.0 mg/kg/injection, schedule: Q01DX001 (ip), vehicle: Klucel (hydroxypropylcellulose) (HPC)): 96 % of control
T/C [12]: 112 % of control
T/C [13]: 101 % of control

O=C(O)CCC(=O)OCCNCCOC(=O)CCC(=O)O
T/C [14]: 92 % of control
T/C (dose: 100.0 mg/kg/injection, schedule: Q01DX009 (ip), vehicle: saline): 96 % of control
T/C (dose: 200.0 mg/kg/injection, schedule: Q01DX009 (ip), vehicle: saline): 99 % of control

COc1cc2c(cc1C(C)c1ccccc1)OCO2 (stereo not given)
T/C [1]: 96 % of control
T/C [2]: 96 % of control
T/C [3]: 111 % of control

Cn1c(Cl)c(/C=N\Nc2cccc([N+](=O)[O-])c2)c2ccccc21
T/C [12]: 92 % of control
T/C [13]: 90 % of control
T/C (dose: 200.0 mg/kg/injection, schedule: Q01DX001 (ip), vehicle: Klucel (hydroxypropylcellulose) (HPC)): 92 % of control

COC(CCC1N=C1c1ccccc1)OC (stereo not given)
T/C (dose: 100.0 mg/kg/injection, schedule: Q04DX002 (ip), vehicle: saline with Tween-80): 105 % of control
T/C (dose: 200.0 mg/kg/injection, schedule: Q04DX002 (ip), vehicle: saline with Tween-80): 102 % of control
T/C (dose: 400.0 mg/kg/injection, schedule: Q04DX002 (ip), vehicle: saline with Tween-80): 102 % of control

OCCN1CCN(CCCN2c3cscc3Sc3ccc(Cl)cc32)CC1
T/C [4]: 94 % of control and 95 % of control
T/C [5]: 101 % of control

C=CCc1ccccc1C
T/C [7]: 109 % of control
T/C [8]: 101 % of control

OCCC1CCN(CC/C=C2/c3ccc(F)cc3Sc3ccc(C(F)(F)F)cc32)CC1
T/C (dose: 25.0 micrograms/kg/injection, schedule: Q01DX001 (ip), vehicle: saline): 99 % of control
T/C (dose: 50.0 micrograms/kg/injection, schedule: Q01DX001 (ip), vehicle: saline): 114 % of control and 96 % of control
T/C (dose: 100.0 micrograms/kg/injection, schedule: Q01DX001 (ip), vehicle: saline): 117 % of control

Nc1ccc(C(=O)Nc2ccccc2N)cc1
T/C (dose: 100.0 mg/kg/injection, schedule: Q04DX003 (ip), vehicle: saline with Tween-80): 100 % of control
T/C (dose: 200.0 mg/kg/injection, schedule: Q04DX003 (ip), vehicle: saline with Tween-80): 99 % of control
T/C (dose: 400.0 mg/kg/injection, schedule: Q04DX003 (ip), vehicle: saline with Tween-80): 108 % of control

Cc1c(O)c(=O)ccn1CCO
T/C (dose: 50.0 mg/kg/injection, schedule: Q01DX005 (ip), vehicle: saline): 102 % of control and 104 % of control
T/C (dose: 100.0 mg/kg/injection, schedule: Q01DX005 (ip), vehicle: saline): 100 % of control and 106 % of control
T/C (dose: 200.0 mg/kg/injection, schedule: Q01DX005 (ip), vehicle: saline): 117 % of control and 124 % of control

COc1ccc2c(c1)OCCN(C)OC2c1cccc(Cl)c1 (stereo not given)
T/C [1]: 107 % of control
T/C [2]: 99 % of control
T/C [3]: 92 % of control

CC1(C)COC(c2ccc(C(C)(C)C)cc2)=N1
T/C (dose: 3.13 mg/kg/injection, schedule: Q01DX009 (ip), vehicle: saline with Tween-80): 105 % of control
T/C (dose: 6.25 mg/kg/injection, schedule: Q01DX009 (ip), vehicle: saline with Tween-80): 105 % of control
T/C (dose: 12.5 mg/kg/injection, schedule: Q01DX009 (ip), vehicle: saline with Tween-80): 98 % of control

CN1NC(c2ccccc2)=C(C#N)C(=O)CC1c1ccco1 (stereo not given)
T/C [9]: 102 % of control
T/C [10]: 86 % of control
T/C [11]: 97 % of control

CCOC1=Nc2ccccc2C1(C)CCO (stereo not given)
T/C [9]: 96 % of control
T/C [10]: 101 % of control
T/C [11]: 96 % of control

CC(=O)OCC1CC2COCC2CC1COC(C)=O (stereo not given)
T/C [9]: 100 % of control
T/C [10]: 108 % of control
T/C [11]: 102 % of control

CC(/C=C/c1ccc(C)cc1)=N\NC(N)=O
T/C [1]: 103 % of control
T/C [2]: 102 % of control
T/C [3]: 93 % of control

Cc1ccc2[nH]c(N(C)C)nc2c2nc(Cl)nc1-2
T/C (dose: 8.25 mg/kg/injection, schedule: Q01DX005 (ip), vehicle: saline): 108 % of control
T/C (dose: 16.5 mg/kg/injection, schedule: Q01DX005 (ip), vehicle: saline): 103 % of control
T/C (dose: 33.0 mg/kg/injection, schedule: Q01DX005 (ip), vehicle: saline): 100 % of control
T/C (dose: 66.0 mg/kg/injection, schedule: Q01DX005 (ip), vehicle: saline): 97 % of control

Cn1c(=O)oc2ccc(Br)cc21
T/C (dose: 100.0 mg/kg/injection, schedule: Q04DX002 (ip), vehicle: Klucel (hydroxypropylcellulose) (HPC)): 104 % of control
T/C (dose: 200.0 mg/kg/injection, schedule: Q04DX002 (ip), vehicle: Klucel (hydroxypropylcellulose) (HPC)): 104 % of control
T/C (dose: 400.0 mg/kg/injection, schedule: Q04DX002 (ip), vehicle: Klucel (hydroxypropylcellulose) (HPC)): 100 % of control

[Cl][Eu]([Cl])[Cl]
T/C [14]: 89 % of control
